Reference: BindingDB's records for doi:10.1021/jm070276i (Abbott Laboratories, 2007)

Each compound was assayed against Transient receptor potential cation channel subfamily V member 1 (Homo sapiens, UniProt Q8NER1) (assay: Ca2+ Influx Functional Assay for the Determination of in Vitro Activity.). Details: not given.
Transient receptor potential cation channel subfamily V member 1, sequence (Q8NER1 whole entry): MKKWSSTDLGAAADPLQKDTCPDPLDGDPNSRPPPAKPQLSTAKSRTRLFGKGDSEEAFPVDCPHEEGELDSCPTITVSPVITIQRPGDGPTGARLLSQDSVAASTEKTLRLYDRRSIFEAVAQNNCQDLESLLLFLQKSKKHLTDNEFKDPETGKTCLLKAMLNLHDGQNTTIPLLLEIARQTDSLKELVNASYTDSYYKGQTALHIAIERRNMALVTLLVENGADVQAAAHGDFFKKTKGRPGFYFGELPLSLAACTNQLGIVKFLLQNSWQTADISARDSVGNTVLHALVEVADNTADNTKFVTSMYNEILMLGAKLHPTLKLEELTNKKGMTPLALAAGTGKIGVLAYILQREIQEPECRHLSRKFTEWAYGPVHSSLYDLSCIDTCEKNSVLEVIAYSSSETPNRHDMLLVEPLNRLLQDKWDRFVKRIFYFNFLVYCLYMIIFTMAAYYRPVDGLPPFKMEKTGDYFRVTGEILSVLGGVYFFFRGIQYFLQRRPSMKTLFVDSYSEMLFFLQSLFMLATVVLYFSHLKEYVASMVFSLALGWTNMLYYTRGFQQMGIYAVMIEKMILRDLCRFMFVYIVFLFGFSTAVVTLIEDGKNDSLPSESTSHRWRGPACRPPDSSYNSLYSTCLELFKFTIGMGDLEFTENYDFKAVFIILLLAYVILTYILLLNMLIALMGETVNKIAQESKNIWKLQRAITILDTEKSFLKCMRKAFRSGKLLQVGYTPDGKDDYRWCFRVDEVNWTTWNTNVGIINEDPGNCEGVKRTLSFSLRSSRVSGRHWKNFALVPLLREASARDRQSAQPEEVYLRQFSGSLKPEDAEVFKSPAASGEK
Protocol: The functional antagonist activity of compounds at the TRPV1 receptor was determined with a Ca2+ influx assay by measuring the effect on capsaicin (0.05 uM) evoked increase in intracellular Ca2+ levels using cells stably expressing recombinant human TRPV1. All compounds were tested over an 11-point half-log concentration range. The fluorescent Ca2+ chelating dye fluo-4 was used as an indicator of the relative levels of Ca2+ in a 96-well format using a fluorescence imaging plate reader. Fluorescence readings were made at 1-5 s intervals over the 240 s course of the experimental run. The peak increase in relative fluorescence units was calculated and expressed as a percentage of the 0.05 uM capsaicin (control) response. Curve fits of the data were solved using a four-parameter logistic Hill equation in GraphPad Prism, and IC50 values were calculated.
O=C1C[C@H]2CC[C@@H](C1)N2c1cc(F)c(CNC(=O)Nc2cccc3[nH]ncc23)cc1F [1-({2,5-difluoro-4-[(1R,5S)-3-oxo-8-azabicyclo[3.2.1]octan-8-yl]phenyl}methyl)-3-1H-indazol-4-ylurea] showed an EC50 of 157 nM.
O=C(NCc1cc(F)c(N2[C@@H]3CCC[C@H]2CC3)c(F)c1)Nc1cccc2[nH]ncc12 [1-({4-[(1R,5S)-8-azabicyclo[3.2.1]octan-8-yl]-3,5-difluorophenyl}methyl)-3-1H-indazol-4-ylurea] showed an EC50 of 12.6 nM.
Compound CCN1CCc2cc(CNC(=O)Nc3cccc4[nH]ncc34)ccc21 [1-[(1-ethyl-2,3-dihydro-1H-indol-5-yl)methyl]-3-1H-indazol-4-ylurea] has an EC50 of 285 nM.
Compound Cn1ncc2c(NC(=O)NCc3ccc(N4[C@@H]5CCC[C@H]4CC5)cc3Cc3ccccc3)cccc21 [1-({4-[(1R,5S)-8-azabicyclo[3.2.1]octan-8-yl]-2-benzylphenyl}methyl)-3-(1-methyl-1H-indazol-4-yl)urea] has an EC50 of 19 nM.
With Cc1cc(CNC(=O)Nc2cccc3[nH]ncc23)ccc1N1[C@@H]2CCC[C@H]1CC2 [1-({4-[(1R,5S)-8-azabicyclo[3.2.1]octan-8-yl]-3-methylphenyl}methyl)-3-1H-indazol-4-ylurea] the EC50 was 19.8 nM.
Work on CC(C)(C)CCc1cc(N2[C@@H]3CCC[C@H]2CC3)ccc1CNC(=O)Nc1cccc2[nH]ncc12 [1-({4-[(1R,5S)-8-azabicyclo[3.2.1]octan-8-yl]-2-(3,3-dimethylbutyl)phenyl}methyl)-3-1H-indazol-4-ylurea] yielded an EC50 of 10.3 nM.
O=C(NCc1ccc(N2[C@@H]3CCC[C@H]2CC3)c(Cl)c1)Nc1cccc2[nH]ncc12 [1-({4-[(1R,5S)-8-azabicyclo[3.2.1]octan-8-yl]-3-chlorophenyl}methyl)-3-1H-indazol-4-ylurea] was tested, and the EC50 was 20.4 nM.
O=C(NCc1ccc(N2[C@@H]3CCC[C@H]2CC3)c(Br)c1)Nc1cccc2[nH]ncc12 [1-({4-[(1R,5S)-8-azabicyclo[3.2.1]octan-8-yl]-3-bromophenyl}methyl)-3-1H-indazol-4-ylurea] was tested, and the EC50 was 43.2 nM.
With O=C(NCc1ccc(N2[C@@H]3CCC[C@H]2CC3)c(C(F)(F)F)c1)Nc1cccc2[nH]ncc12 [1-({4-[(1R,5S)-8-azabicyclo[3.2.1]octan-8-yl]-3-(trifluoromethyl)phenyl}methyl)-3-1H-indazol-4-ylurea] the EC50 was 26.9 nM.
O=C(NCc1ccc(N2[C@@H]3CCC[C@H]2CC3)c(F)c1)Nc1cccc2[nH]ncc12 [1-({4-[(1R,5S)-8-azabicyclo[3.2.1]octan-8-yl]-3-fluorophenyl}methyl)-3-1H-indazol-4-ylurea] was tested, and the EC50 was 14.8 nM.
Cn1c2ccccc2c2cc(CNC(=O)Nc3cccc4[nH]ncc34)ccc21 [3-1H-indazol-4-yl-1-[(9-methyl-9H-carbazol-3-yl)methyl]urea] gave an EC50 of 902 nM.
O=C(NCc1ccc(N2[C@@H]3CCC[C@H]2CC3)c(F)c1F)Nc1cccc2[nH]ncc12 [1-({4-[(1R,5S)-8-azabicyclo[3.2.1]octan-8-yl]-2,3-difluorophenyl}methyl)-3-1H-indazol-4-ylurea] showed an EC50 of 25.5 nM.
Compound Cc1cc(N2[C@@H]3CCC[C@H]2CC3)ccc1CNC(=O)Nc1cccc2[nH]ncc12 [1-({4-[(1R,5S)-8-azabicyclo[3.2.1]octan-8-yl]-2-methylphenyl}methyl)-3-1H-indazol-4-ylurea] has an EC50 of 29 nM.
For CC(C)c1cc(N2[C@@H]3CCC[C@H]2CC3)ccc1CNC(=O)Nc1cccc2[nH]ncc12 [1-({4-[(1R,5S)-8-azabicyclo[3.2.1]octan-8-yl]-2-(propan-2-yl)phenyl}methyl)-3-1H-indazol-4-ylurea], the EC50 was 35.3 nM.
O=C(NCc1cc(F)c(N2[C@@H]3CC[C@H]2CC2(C3)OCCO2)cc1F)Nc1cccc2[nH]ncc12 [1-({4-[(1S,5R)-8-azaspiro[bicyclo[3.2.1]octane-3,2'-[1,3]dioxolane]]-2,5-difluorophenyl}methyl)-3-1H-indazol-4-ylurea] gave an EC50 of 82 nM.

Same assay, conditions: pH 7.4; 22 °C
O=C(NCc1ccc(N2CCCCCC2)cc1Cl)Nc1cccc2[nH]ncc12 [1-{[4-(azepan-1-yl)-2-chlorophenyl]methyl}-3-1H-indazol-4-ylurea] was tested, and the EC50 was 190 nM.
Compound O=C(NCc1ccc(N2CCOCC2)cc1)Nc1cccc2cnc(Cl)cc12 [1-(3-chloroisoquinolin-5-yl)-3-{[4-(morpholin-4-yl)phenyl]methyl}urea] has an EC50 of 156 nM.
In the case of O=C(NCc1ccc(N2CCCCCC2)c(F)c1)Nc1cccc2cnccc12 [3-{[4-(azepan-1-yl)-3-fluorophenyl]methyl}-1-isoquinolin-5-ylurea], the EC50 is reported as 2.8 nM.
Compound O=C(NCc1cc(F)c(N2CCCCCC2)c(F)c1)Nc1cccc2[nH]ncc12 [1-{[4-(azepan-1-yl)-3,5-difluorophenyl]methyl}-3-1H-indazol-4-ylurea] has an EC50 of 39.3 nM.
Work on O=C(NCc1ccc(C(F)(F)F)cc1)Nc1cccc2cnccc12 [1-isoquinolin-5-yl-3-{[4-(trifluoromethyl)phenyl]methyl}urea] yielded an EC50 of 2.1 nM.
Cc1cc2c(NC(=O)NCc3ccc(N4CCCCCC4)cc3)cccc2cn1 [3-{[4-(azepan-1-yl)phenyl]methyl}-1-(3-methylisoquinolin-5-yl)urea] showed an EC50 of 3.8 nM.
With O=C(NCc1ccc(N2CCCCCC2)cc1Cl)Nc1cccc2cnccc12 [3-{[4-(azepan-1-yl)-2-chlorophenyl]methyl}-1-isoquinolin-5-ylurea] the EC50 was 5.2 nM.
O=C(NCc1ccc(N2[C@@H]3CCC[C@H]2CC3)cc1C(F)(F)F)Nc1cccc2[nH]ncc12 [1-({4-[(1R,5S)-8-azabicyclo[3.2.1]octan-8-yl]-2-(trifluoromethyl)phenyl}methyl)-3-1H-indazol-4-ylurea] showed an EC50 of 54.5 nM.
O=C(NCc1ccc(N2[C@@H]3CCC[C@H]2CC3)cc1)Nc1cccc2cnccc12 [3-({4-[(1R,5S)-8-azabicyclo[3.2.1]octan-8-yl]phenyl}methyl)-1-isoquinolin-5-ylurea] gave an EC50 of 3.3 nM.
CC1CN(c2ccc(CNC(=O)Nc3cccc4cnccc34)cc2)CC(C)O1 (stereo not given) [3-{[4-(2,6-dimethylmorpholin-4-yl)phenyl]methyl}-1-isoquinolin-5-ylurea] showed an EC50 of 258 nM.
With O=C(NCc1ccc(N2CCCCC2)cc1)Nc1cccc2cnccc12 [1-isoquinolin-5-yl-3-{[4-(piperidin-1-yl)phenyl]methyl}urea] the EC50 was 7.3 nM.
In the case of O=C(NCc1ccc(N2CCCCCC2)cc1)Nc1cccc2cnccc12 [3-{[4-(azepan-1-yl)phenyl]methyl}-1-isoquinolin-5-ylurea], the EC50 is reported as 3.3 nM.
O=C(NCc1ccc(N2[C@@H]3CCC[C@H]2CC3)cc1)Nc1cccc2[nH]ncc12 [1-({4-[(1R,5S)-8-azabicyclo[3.2.1]octan-8-yl]phenyl}methyl)-3-1H-indazol-4-ylurea] was tested, and the EC50 was 18 nM.
For CC1CCN(c2ccc(CNC(=O)Nc3cccc4cnccc34)cc2)CC1 [1-isoquinolin-5-yl-3-{[4-(4-methylpiperidin-1-yl)phenyl]methyl}urea], the EC50 was 9.3 nM.
With Nc1cc2c(NC(=O)NCc3ccc(N4CCCCCC4)cc3)cccc2cn1 [1-(3-aminoisoquinolin-5-yl)-3-{[4-(azepan-1-yl)phenyl]methyl}urea] the EC50 was 9.8 nM.
O=C(NCc1ccc(N2CCCCCCC2)cc1)Nc1cccc2cnccc12 [3-{[4-(azocan-1-yl)phenyl]methyl}-1-isoquinolin-5-ylurea] was tested, and the EC50 was 4.7 nM.
O=C(NCc1ccc(N2CCCCCC2)c(F)c1)Nc1cccc2[nH]ncc12 [1-{[4-(azepan-1-yl)-3-fluorophenyl]methyl}-3-1H-indazol-4-ylurea] showed an EC50 of 14.2 nM.
Compound O=C(NCc1cc(F)c(N2CCOCC2)c(F)c1)Nc1cccc2cnccc12 [3-{[3,5-difluoro-4-(morpholin-4-yl)phenyl]methyl}-1-isoquinolin-5-ylurea] has an EC50 of 9.3 nM.
In the case of O=C(NCc1ccc(N2CCCCCC2)c(C(F)(F)F)c1)Nc1cccc2cnccc12 [3-{[4-(azepan-1-yl)-3-(trifluoromethyl)phenyl]methyl}-1-isoquinolin-5-ylurea], the EC50 is reported as 4.6 nM.
With O=C(NCc1ccc(N2CCCCCC2)cc1C(F)(F)F)Nc1cccc2cnccc12 [3-{[4-(azepan-1-yl)-2-(trifluoromethyl)phenyl]methyl}-1-isoquinolin-5-ylurea] the EC50 was 5.7 nM.
O=C(NCc1ccc(N2[C@@H]3CCC[C@H]2CC3)cc1Cl)Nc1cccc2[nH]ncc12 [1-({4-[(1R,5S)-8-azabicyclo[3.2.1]octan-8-yl]-2-chlorophenyl}methyl)-3-1H-indazol-4-ylurea] showed an EC50 of 58.8 nM.
CN(C)c1ccc(CNC(=O)Nc2cccc3cnccc23)cc1 [3-{[4-(dimethylamino)phenyl]methyl}-1-isoquinolin-5-ylurea] gave an EC50 of 157 nM.
Compound O=C(NCc1ccc(N2CCOCC2)cc1)Nc1cccc2cnccc12 [1-isoquinolin-5-yl-3-{[4-(morpholin-4-yl)phenyl]methyl}urea] has an EC50 of 91 nM.
Work on Cc1cc2c(NC(=O)NCc3ccc(N4Cc5ccccc5C4)c(F)c3)cccc2cn1 [3-{[4-(2,3-dihydro-1H-isoindol-2-yl)-3-fluorophenyl]methyl}-1-(3-methylisoquinolin-5-yl)urea] yielded an EC50 of 7360 nM.
In the case of O=C(NCc1ccc(N2CCCCCC2)cc1C(F)(F)F)Nc1cccc2[nH]ncc12 [1-{[4-(azepan-1-yl)-2-(trifluoromethyl)phenyl]methyl}-3-1H-indazol-4-ylurea], the EC50 is reported as 133 nM.
